The values that follow come from patent US10883992B2, “Universal kinase substrates and methods of use thereof” (Regents of the University of Minnesota, priority 2018, dated 2021).

The term kcat denotes the number of substrate molecules converted per active site and unit of time at saturation.

What all share (assay type): biochemical
Assay [1] deals with panel of 15 PTKs. Nature of the assay: Universal kinase substrate screen of the pilot library, [γ-33P]ATP incorporation. The following applies: biotinylated peptides 10 μM; for phosphorylation by the panel of PTKs: 50 μM ATP, 30° C., 30 min, 15 PTKs; for average phosphorylation across the kinase panel: averaged over 15 PTKs (FIG. 1B). As to the method: This pilot library was then subjected to an initial screen to test their phosphorylation by a panel of 15 PTKs that included 12 non-receptor TKs (representing all 10 NRTK families) and 3 receptor TKs (representing 3 RTK families). Pilot peptides were assayed alongside several previously reported substrates that were designed to be specific to individual kinases. Conversion to product was monitored via incorporation of phosphate from [γ-^33P] radiolabeled adenosine triphosphate (ATP). These intensities were normalized to background and visualized as a heat map in FIG. 1. […] By contrast, as previously reported, peptides that had been designed to specifically target individual kinases had more restricted reactivity.
(§1) Biotinylated peptides (10 μM final concentration) were arrayed in a 384-well plate in 18 μL reaction buffer (50 mM HEPES, pH 7.5, 150 mM NaCl, 10 mM MgCl2, 1 mM DTT, 0.1% v/v Tween-20). Reactions were initiated by adding […] kinase (to 3-9 ng/μL) and [γ-^33P] ATP (to 50 μM, 0.025 μCi/μL) in reaction buffer. Plates were sealed and incubated at 30° C. for 30 min, and then 2 μL aliquots were transferred to streptavidin membrane (Promega SAM2 biotin capture membrane) using a pin-tool. […] Incorporation of radiolabel was quantified by phosphor imaging using QuantityOne software (Bio-Rad). After background correction, data were normalized such that the peptide with the greatest signal was 100%. Normalized data from at least two separate experiments were averaged and converted to heatmaps using Excel (Microsoft).

The target of assay [2] is T1, Abl (Homo sapiens, UniProt P00519).
T1 construct: purchased Life Technologies
T1 sequence (P00519 whole entry): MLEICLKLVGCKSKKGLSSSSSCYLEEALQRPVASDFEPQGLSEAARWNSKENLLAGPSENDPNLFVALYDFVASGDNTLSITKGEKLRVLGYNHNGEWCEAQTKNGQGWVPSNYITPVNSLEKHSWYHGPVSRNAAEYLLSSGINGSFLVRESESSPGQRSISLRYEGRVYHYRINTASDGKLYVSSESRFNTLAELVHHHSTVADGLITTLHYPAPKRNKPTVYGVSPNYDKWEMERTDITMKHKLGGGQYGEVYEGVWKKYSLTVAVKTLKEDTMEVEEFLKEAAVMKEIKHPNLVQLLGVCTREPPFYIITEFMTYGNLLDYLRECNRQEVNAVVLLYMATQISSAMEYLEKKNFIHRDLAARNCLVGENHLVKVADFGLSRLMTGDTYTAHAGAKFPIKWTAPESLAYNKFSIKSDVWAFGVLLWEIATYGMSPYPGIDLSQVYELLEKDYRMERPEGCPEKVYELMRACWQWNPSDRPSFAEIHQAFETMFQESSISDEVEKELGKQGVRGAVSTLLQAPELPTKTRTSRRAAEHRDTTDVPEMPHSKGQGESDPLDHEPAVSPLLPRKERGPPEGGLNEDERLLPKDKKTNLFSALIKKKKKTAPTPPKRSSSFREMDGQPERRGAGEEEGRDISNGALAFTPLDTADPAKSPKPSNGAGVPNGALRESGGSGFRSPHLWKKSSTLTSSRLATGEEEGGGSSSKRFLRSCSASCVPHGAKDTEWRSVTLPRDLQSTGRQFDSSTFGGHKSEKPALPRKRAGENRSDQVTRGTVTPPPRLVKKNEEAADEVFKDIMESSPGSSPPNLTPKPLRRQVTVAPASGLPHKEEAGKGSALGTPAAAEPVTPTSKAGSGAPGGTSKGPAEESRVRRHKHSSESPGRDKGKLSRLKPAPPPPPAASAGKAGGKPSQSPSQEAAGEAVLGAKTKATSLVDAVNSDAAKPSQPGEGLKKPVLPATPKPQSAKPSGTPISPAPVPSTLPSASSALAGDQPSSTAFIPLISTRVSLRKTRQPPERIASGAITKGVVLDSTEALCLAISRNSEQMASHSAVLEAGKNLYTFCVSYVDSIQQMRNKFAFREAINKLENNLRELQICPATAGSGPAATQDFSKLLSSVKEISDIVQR
Nature of the assay: Michaelis-Menten kinetic analysis of substrate peptides, [γ-33P]ATP radiolabel incorporation.
From the text: (§2) The mammalian expression vector to produce the intracellular portion of human FLT3 fused to GST (GST-FLT3^564-993) was generated by PCR amplifying the encoding sequence and subcloning into the BamHI and NotI sites of pEBG-2T. Mammalian expression vectors to produce BTK, SRC and SYK as GST fusion proteins were previously described. GST-tagged kinases were expressed in HEK293T cells and purified by affinity chromatography using glutathione Sepharose 4B as described (Deng, et al., Journal of Proteome Research 2014, 13, 4339). His6-EGFR^672-998 (“His6” disclosed SEQ ID NO: 25) and His6-ALK^1090-1416 (“His6” disclosed SEQ ID NO: 25) were expressed and purified from Sf9 insect cells as described (Park, et al., Biochemical Journal 2012, 448, 417; Bresler, et al., Science Translational Medicine 2011, 3, 108ra114). Human ABL was purchased from Life Technologies.
as §1
(§3) Final kinase concentrations were as follows: 0.3 ng/μL for ABL, BTK, SRC and SYK; 1.5 ng/μL for FLT3; 2.7 ng/μL for ALK and EGFR. At various incubation times (10, 20 and 30 min), 2 μL aliquots were transferred using a pin tool to P81 phosphocellulose paper (Reaction Biology), which was washed three times in 75 mM H3PO4, briefly washed in acetone and allowed to dry before exposing to a phosphor screen. Incorporation of radiolabel into peptides was quantified as above. After background correction, initial rates of reaction were determined by linear regression and fit to the Michaelis-Menten equation using Prism (GraphPad). […] Reported kinetic parameters are the average of three separate experiments except for FLT3 (two experiments).

Assay [3] has as its target T2, Src (Homo sapiens, UniProt P12931).
T2 construct: GST; made in house; host or cells: HEK293T cells
Described as above. The following applies: for kcat: lower limit extrapolated from kcat/Km.
From the text: as §2, §1, §3

Assay [4] has as its target T3, FLT3 (GST-FLT3 564-993) (Homo sapiens, UniProt P36888).
T3 construct: human FLT3 fused to GST (GST-FLT3^564-993); GST (N); made in house; host or cells: HEK293T cells
T3 sequence (P36888 564-993): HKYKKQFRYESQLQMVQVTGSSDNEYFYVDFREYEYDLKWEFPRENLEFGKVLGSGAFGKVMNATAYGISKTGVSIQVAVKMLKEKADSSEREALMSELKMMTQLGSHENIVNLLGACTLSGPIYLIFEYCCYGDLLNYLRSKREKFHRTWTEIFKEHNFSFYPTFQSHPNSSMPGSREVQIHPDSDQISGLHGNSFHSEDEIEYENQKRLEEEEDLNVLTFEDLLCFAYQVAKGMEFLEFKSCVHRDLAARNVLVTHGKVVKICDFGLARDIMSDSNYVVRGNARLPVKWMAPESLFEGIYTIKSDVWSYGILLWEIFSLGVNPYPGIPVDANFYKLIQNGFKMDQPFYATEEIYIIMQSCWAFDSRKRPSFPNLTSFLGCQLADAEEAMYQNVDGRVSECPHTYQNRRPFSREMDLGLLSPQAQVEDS
Described as above. The settings on record: for kcat: mean ± sem of fits.
From the text: as §2, §1, §3

The target of assay [5] is T4, BTK (Homo sapiens, UniProt Q06187).
T4 construct: GST; made in house; host or cells: HEK293T cells
T4 sequence (Q06187 whole entry, species assumed): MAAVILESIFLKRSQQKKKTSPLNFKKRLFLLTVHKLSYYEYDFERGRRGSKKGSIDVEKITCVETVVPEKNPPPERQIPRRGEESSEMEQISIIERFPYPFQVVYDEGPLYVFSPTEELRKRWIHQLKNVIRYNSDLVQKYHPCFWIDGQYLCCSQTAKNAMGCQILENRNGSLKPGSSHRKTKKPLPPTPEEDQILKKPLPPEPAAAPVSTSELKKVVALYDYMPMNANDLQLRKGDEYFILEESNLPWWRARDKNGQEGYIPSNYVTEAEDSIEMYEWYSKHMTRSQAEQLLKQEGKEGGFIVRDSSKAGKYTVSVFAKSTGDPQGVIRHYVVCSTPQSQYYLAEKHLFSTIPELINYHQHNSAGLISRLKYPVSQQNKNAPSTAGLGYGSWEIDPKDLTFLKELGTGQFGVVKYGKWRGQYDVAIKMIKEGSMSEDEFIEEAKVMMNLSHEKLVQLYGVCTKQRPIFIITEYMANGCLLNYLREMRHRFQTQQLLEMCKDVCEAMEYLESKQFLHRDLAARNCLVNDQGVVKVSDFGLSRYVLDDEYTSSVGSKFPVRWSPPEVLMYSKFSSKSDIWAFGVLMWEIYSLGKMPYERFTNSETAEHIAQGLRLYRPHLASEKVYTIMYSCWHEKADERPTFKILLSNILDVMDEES
The description is as above. The settings on record: for kcat: mean ± sem of fits.
From the text: as §2, §1, §3

Assay [6] addresses T5, EGFR (His6-EGFR 672-998) (Homo sapiens, UniProt P00533).
T5 construct: His6-EGFR^672-998; His6 (N); made in house; host or cells: Sf9 insect cells
Described as above. The settings on record: for kcat: lower limit extrapolated from kcat/Km.
From the text: as §2, §1, §3

Assay [7] deals with T6, ALK (His6-ALK 1090-1416) (Homo sapiens, UniProt Q9UM73).
T6 construct: His6-ALK^1090-1416; His6 (N); made in house; host or cells: Sf9 insect cells
T6 sequence (Q9UM73 1090-1416): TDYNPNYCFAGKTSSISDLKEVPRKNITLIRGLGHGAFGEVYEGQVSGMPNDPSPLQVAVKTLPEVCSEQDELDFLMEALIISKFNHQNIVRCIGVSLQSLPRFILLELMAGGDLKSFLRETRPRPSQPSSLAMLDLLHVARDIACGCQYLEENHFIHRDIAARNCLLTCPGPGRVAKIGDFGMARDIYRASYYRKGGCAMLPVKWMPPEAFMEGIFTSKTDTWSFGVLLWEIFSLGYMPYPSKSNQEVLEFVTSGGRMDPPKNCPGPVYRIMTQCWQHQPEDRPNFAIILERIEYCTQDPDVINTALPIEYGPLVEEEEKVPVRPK
Described as above. The following applies: for kcat: lower limit extrapolated from kcat/Km.
From the text: as §2, §1, §3

For assay [8], the target named is T7, Syk (Homo sapiens, UniProt P43405).
T7 construct: GST; made in house; host or cells: HEK293T cells
The assay is described as above.
From the text: as §2, §1, §3

Setting [9] is: lower limit extrapolated from kcat/Km.
Where [10] appears, read: peptide 2 relative to peptide 5.

Entries after “also recorded” stand apart in the source; their conditions may differ. Ends that are not written are not given here. Peptide text beside a SMILES is read from it. * marks the point of attachment. Biotin = O=C1N[C@H]2[C@H](CS[C@H]2CCCCC(=O)*)N1

In the case of `CC[C@H](C)[C@H](NC(=O)[C@@H]1CCCN1C(=O)[C@H](CC(=O)O)NC(=O)[C@@H](N)CCC(=O)O)C(=O)N[C@@H](Cc1ccc(O)cc1)C(=O)N[C@H](C(=O)N[C@H](C(=O)N[C@@H](CC(C)C)C(=O)N[C@@H](CCC(=O)O)C(=O)NCC(=O)NCC(=O)N[C@@H](CCCCNC(=O)CCCC[C@@H]1SC[C@@H]2NC(=O)N[C@@H]21)C(=O)NCC(=O)NCC(N)=O)[C@@H](C)O)C(C)C` [Peptide 2] (H-EDPIYVTLEGGK(Biotin)GG-NH2), in assay [1], the “phosphorylation by the panel of PTKs” value is reported as “phosphorylated by every PTK tested”. The “average phosphorylation across the kinase panel” value in assay [1] is reported as “highest average rate of phosphorylation across the entire panel of kinases; also recorded: highest phosphorylation averaged across the kinase panel”. Also, the catalytic constant (kcat) in assay [2] (setting [9]) was over 4 s⁻¹; in assay [3] it was over 40 s⁻¹; in assay [4], 0.013 ± 0.004 s⁻¹; in assay [5], 0.061 ± 0.019 s⁻¹; in assay [6], over 0.005 s⁻¹; in assay [7], over 0.02 s⁻¹. For the same compound, the “2/5 kcat/Km ratio” value in assay [2] (setting [10]) stood at 0.13 ± 0.01; in assay [3] (setting [10]) it was 0.52 ± 0.07; in assay [4] (setting [10]), 1.43 ± 0.07; in assay [5] (setting [10]) it was 0.31 ± 0.01; in assay [6] (setting [10]), 5.8 ± 0.2; in assay [7] (setting [10]), 1.23 ± 0.02. The “2/5 kcat/Km ratio” value in assay [8] (setting [10]) was determined as 1.8 ± 0.2.
`CC[C@H](C)[C@H](NC(=O)[C@H](C)NC(=O)[C@H](CCC(=O)O)NC(=O)[C@@H](N)CC(=O)O)C(=O)N[C@@H](Cc1ccc(O)cc1)C(=O)N[C@@H](C)C(=O)N[C@H](C(=O)N[C@H](C(=O)N[C@@H](C)C(=O)NCC(=O)NCC(=O)N[C@@H](CCCCNC(=O)CCCC[C@@H]1SC[C@@H]2NC(=O)N[C@@H]21)C(=O)NCC(=O)NCC(N)=O)C(C)C)[C@@H](C)O` [Peptide 5] (H-DEAIYATVAGGK(Biotin)GG-NH2): in assay [1], the “phosphorylation by the panel of PTKs” value was “phosphorylated by every PTK tested”. Further, the “average phosphorylation across the kinase panel” value in assay [1] is “highest average rate of phosphorylation across the entire panel of kinases; also recorded: highest phosphorylation averaged across the kinase panel”. Further, the turnover number (kcat) in assay [2] (mean ± sem of fits) is 16.5 ± 3.5 s⁻¹; in assay [3] it was over 2 s⁻¹; in assay [4], 0.014 ± 0.004 s⁻¹; in assay [5], 0.26 ± 0.08 s⁻¹; in assay [6], over 0.001 s⁻¹; in assay [7], over 0.02 s⁻¹. Besides, the kcat in assay [8] (setting [9]) was over 0.1 s⁻¹.
As to “DEPIYDTVEGGKbiotinGG (DEPIYDTVEGGK(Biotin)GG) [Peptide 6]”, in assay [1], the “phosphorylation by the panel of PTKs” value is recorded as “phosphorylated by every PTK tested”.
